Test results taken from the NIST ThermoML archive (doi:10.1016/j.jct.2019.04.017).
± gives the expanded uncertainty stated by the source.

Test: xn = mol fraction of the nth substance listed
Conditions: 96 kPa, Liquid; for electrical conductivity: Frequency=0.001 MHz, Alternating current cell with electrodes; for viscosity: Cone and plate viscometry

## C1CCC2=NCCCN2CC1 [1,8-diaza-7-bicyclo[5.4.0]undecene] + OCC(O)CO
308.1 K, x1 = 0.1115
  electrical conductivity: 0.0567 ± 0.0022 S/m
308.1 K, x1 = 0.1266
  electrical conductivity: 0.0543 ± 0.0022 S/m
308.1 K, x1 = 0.1672
  electrical conductivity: 0.0468 ± 0.0019 S/m
308.1 K, x1 = 0.2
  electrical conductivity: 0.0398 ± 0.0016 S/m
308.1 K, x1 = 0.2504
  electrical conductivity: 0.0263 ± 0.001 S/m
308.1 K, x1 = 0.287
  electrical conductivity: 0.0194 ± 0.00077 S/m
308.1 K, x1 = 0.3338
  electrical conductivity: 0.0137 ± 0.00054 S/m
308.1 K, x1 = 0.4003
  electrical conductivity: 0.00571 ± 0.00023 S/m
308.1 K, x1 = 0.5
  electrical conductivity: 0.00128 ± 5.1e-05 S/m
308.1 K, x1 = 0.5656
  electrical conductivity: 0.000502 ± 2e-05 S/m
308.1 K, x1 = 0.6255
  electrical conductivity: 0.000251 ± 9.9e-06 S/m
308.1 K, x1 = 0.75
  electrical conductivity: 0.000346 ± 1.5e-05 S/m
308.1 K, x1 = 0.753
  electrical conductivity: 0.000346 ± 1.4e-05 S/m
308.1 K, x1 = 0.8333
  electrical conductivity: 0.000614 ± 2.7e-05 S/m
308.1 K, x1 = 0.8334
  electrical conductivity: 0.000614 ± 2.4e-05 S/m
308.1 K, x1 = 0.9094
  electrical conductivity: 0.000788 ± 3.1e-05 S/m
308.1 K, x1 = 0.95
  electrical conductivity: 0.000791 ± 3.1e-05 S/m
308.1 K, x1 = 0.975
  electrical conductivity: 0.000668 ± 2.6e-05 S/m
308.1 K, x1 = 1
  electrical conductivity: 0.00032 ± 1.3e-05 S/m
313.1 K, x1 = 0.0502
  electrical conductivity: 0.0666 ± 0.0026 S/m
313.1 K, x1 = 0.0914
  electrical conductivity: 0.0785 ± 0.0031 S/m
313.1 K, x1 = 0.1115
  electrical conductivity: 0.0761 ± 0.003 S/m
313.1 K, x1 = 0.1266
  electrical conductivity: 0.0699 ± 0.0028 S/m
313.1 K, x1 = 0.1672
  electrical conductivity: 0.0613 ± 0.0024 S/m
313.1 K, x1 = 0.2
  electrical conductivity: 0.0497 ± 0.002 S/m
313.1 K, x1 = 0.2504
  electrical conductivity: 0.0335 ± 0.0013 S/m
313.1 K, x1 = 0.287
  electrical conductivity: 0.0245 ± 0.00097 S/m
313.1 K, x1 = 0.3338
  electrical conductivity: 0.0158 ± 0.00063 S/m
313.1 K, x1 = 0.4003
  electrical conductivity: 0.00702 ± 0.00028 S/m
313.1 K, x1 = 0.5
  electrical conductivity: 0.00169 ± 6.7e-05 S/m
313.1 K, x1 = 0.5656
  electrical conductivity: 0.000644 ± 2.5e-05 S/m
313.1 K, x1 = 0.6255
  electrical conductivity: 0.00034 ± 1.3e-05 S/m
313.1 K, x1 = 0.753
  electrical conductivity: 0.000447 ± 1.8e-05 S/m
313.1 K, x1 = 0.8334
  electrical conductivity: 0.00076 ± 3e-05 S/m
313.1 K, x1 = 0.9094
  electrical conductivity: 0.000915 ± 3.6e-05 S/m
313.1 K, x1 = 0.95
  electrical conductivity: 0.000857 ± 3.4e-05 S/m
313.1 K, x1 = 0.975
  electrical conductivity: 0.000719 ± 2.9e-05 S/m
313.1 K, x1 = 1
  electrical conductivity: 0.000356 ± 1.4e-05 S/m
318.1 K, x1 = 0.0501
  viscosity: 294.1 ± 25 mPa·s
318.1 K, x1 = 0.0909
  viscosity: 345.9 ± 30 mPa·s
318.1 K, x1 = 0.1
  viscosity: 343 ± 30 mPa·s
  electrical conductivity: 0.0947 ± 0.0042 S/m
318.1 K, x1 = 0.1667
  viscosity: 359.5 ± 32 mPa·s
318.1 K, x1 = 0.2
  viscosity: 370.7 ± 33 mPa·s
  electrical conductivity: 0.0601 ± 0.0024 S/m
318.1 K, x1 = 0.2153
  viscosity: 376.5 ± 34 mPa·s
318.1 K, x1 = 0.2306
  viscosity: 355.8 ± 31 mPa·s
318.1 K, x1 = 0.3059
  viscosity: 341.7 ± 30 mPa·s
318.1 K, x1 = 0.3333
  viscosity: 316.5 ± 27 mPa·s
318.1 K, x1 = 0.4011
  viscosity: 279.6 ± 23 mPa·s
318.1 K, x1 = 0.5
  viscosity: 223.8 ± 18 mPa·s
  electrical conductivity: 0.00221 ± 8.8e-05 S/m
318.1 K, x1 = 0.5632
  viscosity: 169.8 ± 13 mPa·s
318.1 K, x1 = 0.625
  viscosity: 109 ± 7.7 mPa·s
318.1 K, x1 = 0.75
  viscosity: 43.75 ± 2.9 mPa·s
  electrical conductivity: 0.000559 ± 2.5e-05 S/m
318.1 K, x1 = 0.8333
  viscosity: 20.71 ± 1.4 mPa·s
  electrical conductivity: 0.00087 ± 3.9e-05 S/m
318.1 K, x1 = 1
  viscosity: 6.08 ± 0.39 mPa·s
  electrical conductivity: 0.000382 ± 1.5e-05 S/m
318.1 K, x1 = 0.0502
  electrical conductivity: 0.0795 ± 0.0032 S/m
318.1 K, x1 = 0.0914
  electrical conductivity: 0.0971 ± 0.0039 S/m
318.1 K, x1 = 0.1115
  electrical conductivity: 0.0924 ± 0.0037 S/m
318.1 K, x1 = 0.1266
  electrical conductivity: 0.0877 ± 0.0035 S/m
318.1 K, x1 = 0.1672
  electrical conductivity: 0.0735 ± 0.0029 S/m
318.1 K, x1 = 0.2504
  electrical conductivity: 0.041 ± 0.0016 S/m
318.1 K, x1 = 0.287
  electrical conductivity: 0.0303 ± 0.0012 S/m
318.1 K, x1 = 0.3338
  electrical conductivity: 0.0192 ± 0.00076 S/m
318.1 K, x1 = 0.4003
  electrical conductivity: 0.00895 ± 0.00035 S/m
318.1 K, x1 = 0.5656
  electrical conductivity: 0.000939 ± 3.7e-05 S/m
318.1 K, x1 = 0.6255
  electrical conductivity: 0.000466 ± 1.8e-05 S/m
318.1 K, x1 = 0.753
  electrical conductivity: 0.000559 ± 2.2e-05 S/m
318.1 K, x1 = 0.8334
  electrical conductivity: 0.00087 ± 3.4e-05 S/m
318.1 K, x1 = 0.9094
  electrical conductivity: 0.00101 ± 4e-05 S/m
318.1 K, x1 = 0.95
  electrical conductivity: 0.000949 ± 3.8e-05 S/m
318.1 K, x1 = 0.975
  electrical conductivity: 0.000789 ± 3.1e-05 S/m
323.1 K, x1 = 0.0502
  electrical conductivity: 0.0955 ± 0.0038 S/m
323.1 K, x1 = 0.0914
  electrical conductivity: 0.118 ± 0.0047 S/m
323.1 K, x1 = 0.1115
  electrical conductivity: 0.107 ± 0.0043 S/m
323.1 K, x1 = 0.1266
  electrical conductivity: 0.101 ± 0.004 S/m
323.1 K, x1 = 0.1672
  electrical conductivity: 0.0882 ± 0.0035 S/m
323.1 K, x1 = 0.2
  electrical conductivity: 0.071 ± 0.0028 S/m
323.1 K, x1 = 0.2504
  electrical conductivity: 0.0491 ± 0.0019 S/m
323.1 K, x1 = 0.287
  electrical conductivity: 0.0358 ± 0.0014 S/m
323.1 K, x1 = 0.3338
  electrical conductivity: 0.0233 ± 0.00092 S/m
323.1 K, x1 = 0.4003
  electrical conductivity: 0.0107 ± 0.00042 S/m
323.1 K, x1 = 0.5
  electrical conductivity: 0.00279 ± 0.00011 S/m
323.1 K, x1 = 0.5656
  electrical conductivity: 0.00113 ± 4.5e-05 S/m
323.1 K, x1 = 0.6255
  electrical conductivity: 0.000604 ± 2.4e-05 S/m
323.1 K, x1 = 0.753
  electrical conductivity: 0.000667 ± 2.6e-05 S/m
323.1 K, x1 = 0.8334
  electrical conductivity: 0.00102 ± 4e-05 S/m
323.1 K, x1 = 0.9094
  electrical conductivity: 0.00111 ± 4.4e-05 S/m
323.1 K, x1 = 0.95
  electrical conductivity: 0.00104 ± 4.1e-05 S/m
323.1 K, x1 = 0.975
  electrical conductivity: 0.000841 ± 3.3e-05 S/m
323.1 K, x1 = 1
  electrical conductivity: 0.000423 ± 1.7e-05 S/m
328.1 K, x1 = 0.0501
  viscosity: 152.2 ± 11 mPa·s
328.1 K, x1 = 0.0909
  viscosity: 175 ± 13 mPa·s
328.1 K, x1 = 0.1
  viscosity: 177.4 ± 13 mPa·s
  electrical conductivity: 0.132 ± 0.0058 S/m
328.1 K, x1 = 0.1667
  viscosity: 182.5 ± 14 mPa·s
328.1 K, x1 = 0.2
  viscosity: 184.3 ± 14 mPa·s
  electrical conductivity: 0.0859 ± 0.0034 S/m
328.1 K, x1 = 0.2153
  viscosity: 186.8 ± 14 mPa·s
328.1 K, x1 = 0.2306
  viscosity: 177.8 ± 13 mPa·s
328.1 K, x1 = 0.3059
  viscosity: 159.5 ± 12 mPa·s
328.1 K, x1 = 0.3333
  viscosity: 155 ± 11 mPa·s
328.1 K, x1 = 0.4011
  viscosity: 138.5 ± 10 mPa·s
328.1 K, x1 = 0.5
  viscosity: 105.4 ± 7.4 mPa·s
  electrical conductivity: 0.00347 ± 0.00014 S/m
328.1 K, x1 = 0.5632
  viscosity: 83.62 ± 5.7 mPa·s
328.1 K, x1 = 0.625
  viscosity: 57.48 ± 3.8 mPa·s
328.1 K, x1 = 0.75
  viscosity: 26.15 ± 1.7 mPa·s
  electrical conductivity: 0.000826 ± 3.7e-05 S/m
328.1 K, x1 = 0.8333
  viscosity: 13.46 ± 0.87 mPa·s
  electrical conductivity: 0.00115 ± 5.1e-05 S/m
328.1 K, x1 = 1
  viscosity: 4.91 ± 0.32 mPa·s
  electrical conductivity: 0.000444 ± 1.8e-05 S/m
328.1 K, x1 = 0.0502
  electrical conductivity: 0.11 ± 0.0043 S/m
328.1 K, x1 = 0.0914
  electrical conductivity: 0.132 ± 0.0052 S/m
328.1 K, x1 = 0.1115
  electrical conductivity: 0.129 ± 0.0051 S/m
328.1 K, x1 = 0.1266
  electrical conductivity: 0.126 ± 0.005 S/m
328.1 K, x1 = 0.1672
  electrical conductivity: 0.103 ± 0.0041 S/m
328.1 K, x1 = 0.2504
  electrical conductivity: 0.0585 ± 0.0023 S/m
328.1 K, x1 = 0.287
  electrical conductivity: 0.0432 ± 0.0017 S/m
328.1 K, x1 = 0.3338
  electrical conductivity: 0.0271 ± 0.0011 S/m
328.1 K, x1 = 0.4003
  electrical conductivity: 0.0131 ± 0.00052 S/m
328.1 K, x1 = 0.5656
  electrical conductivity: 0.0015 ± 5.9e-05 S/m
328.1 K, x1 = 0.6255
  electrical conductivity: 0.0008 ± 3.2e-05 S/m
328.1 K, x1 = 0.753
  electrical conductivity: 0.000826 ± 3.3e-05 S/m
328.1 K, x1 = 0.8334
  electrical conductivity: 0.00115 ± 4.5e-05 S/m
328.1 K, x1 = 0.9094
  electrical conductivity: 0.0012 ± 4.8e-05 S/m
328.1 K, x1 = 0.95
  electrical conductivity: 0.00112 ± 4.4e-05 S/m
328.1 K, x1 = 0.975
  electrical conductivity: 0.000928 ± 3.7e-05 S/m
